Measurements taken from publication PMC8222713, “Variation of Two S3b Residues in KV4.1–4.3 Channels Underlies Their Different Modulations by Spider Toxin κ-LhTx-1” (Frontiers in Pharmacology, 2021).
Where a SMILES comes first, the peptide text is derived from it. Bridges are numbered along the chain shown (N, C = ends).

Experiments:
KV4.1/279LF/AA mutant = experiment: Whole-cell patch clamp, KV4.1/279LF/AA in CHO-K1 cells; format: cell-based, mouse; details: KV4.1/279LF/AA at Va depolarizing voltage, n = 5–7
Protocol: (§1) The cDNA of hKV1.1, hKV1.3, rKV1.4, hKV1.5, rKV2.1, hKV3.1–3.4, mKV4.1, rKV4.2, and rKV4.3 were subcloned in the eukaryotic expression vector pCDNA3.1 or pCMV-blank. Channel mutants were made by a site-directed mutation method. Briefly, a pair of oppositely directed primers with 15 bp overlap at their 5′ ends and the designed mutation site were used to amplify the parental channel plasmid, then the PCR mix was treated with DpnI to remove the template. 10 μL digestion mix was directly used to transform 100 μL DH5α chemical competent cells. The correct mutation made by this procedure was finally confirmed by DNA sequencing. […] 4–6 h after transfection, cells were seeded onto poly-lysine (PLL) coated coverslips, and 24–36 h later, transfected cells were ready for patch-clamp analysis. […]
(§2) Whole-cell patch clamp recording was performed in an electrophysiology platform equipped with MultiClamp 700B amplifier and Axon Digidata 1550 AD/DA convertor (Axon Instruments, Irvine, CA, United States). […] The whole cell conductance (G) at each depolarizing voltage (V) was determined using the equation: G = I/(V−Vrev), where I and Vrev represents the current amplitude and the reversal potential, respectively. In the present study, Vrev for K^+ current is determined to be −85.61 mV using the Nernst equation. […] Gating currents of KV4.1–4.3 channels were measured as previously reported ([Tilley et al., 2019]). […]

KV4.1 channel (mKV4.1) = target: T1, KV4.1 channel (mKV4.1) (Mus musculus, UniProt Q03719); experiment: Whole-cell patch clamp, KV4.1 in CHO-K1 cells; format: cell-based
T1 construct: expressed in transfected cells; host or cells: CHO-K1 (transient, co-transfected with pEGFP-N1)
T1 sequence (Q03719 1-651): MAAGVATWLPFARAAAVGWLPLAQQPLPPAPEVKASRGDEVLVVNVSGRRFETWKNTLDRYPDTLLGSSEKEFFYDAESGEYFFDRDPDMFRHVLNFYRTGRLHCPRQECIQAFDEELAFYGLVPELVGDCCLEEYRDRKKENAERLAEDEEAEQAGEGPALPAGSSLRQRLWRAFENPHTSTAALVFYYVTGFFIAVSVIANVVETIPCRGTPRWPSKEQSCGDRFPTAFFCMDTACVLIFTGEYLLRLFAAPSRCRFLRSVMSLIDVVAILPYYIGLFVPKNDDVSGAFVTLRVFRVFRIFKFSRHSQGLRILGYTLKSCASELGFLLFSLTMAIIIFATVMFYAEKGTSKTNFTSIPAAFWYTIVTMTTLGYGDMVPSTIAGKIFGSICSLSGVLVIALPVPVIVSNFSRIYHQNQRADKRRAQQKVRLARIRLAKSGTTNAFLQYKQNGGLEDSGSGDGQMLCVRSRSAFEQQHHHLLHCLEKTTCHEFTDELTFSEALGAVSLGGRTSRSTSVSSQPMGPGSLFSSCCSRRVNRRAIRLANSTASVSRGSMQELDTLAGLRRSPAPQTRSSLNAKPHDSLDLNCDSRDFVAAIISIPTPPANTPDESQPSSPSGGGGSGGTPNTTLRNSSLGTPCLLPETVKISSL
Protocol: (§3) The cDNA of hKV1.1, hKV1.3, rKV1.4, hKV1.5, rKV2.1, hKV3.1–3.4, mKV4.1, rKV4.2, and rKV4.3 were subcloned in the eukaryotic expression vector pCDNA3.1 or pCMV-blank. Channel mutants were made by a site-directed mutation method. Briefly, a pair of oppositely directed primers with 15 bp overlap at their 5′ ends and the designed mutation site were used to amplify the parental channel plasmid, then the PCR mix was treated with DpnI to remove the template. 10 μL digestion mix was directly used to transform 100 μL DH5α chemical competent cells. The correct mutation made by this procedure was finally confirmed by DNA sequencing. CHO-K1 cells (ATCC® CCL-61™) were grown in DMEM-F12 mixed medium (1:1) supplemented with 10% FBS and maintained in standard conditions (saturated humidity, 37°C, 5% CO2). Channel plasmid was co-transfected with pEGFP-N1 (encodes the green fluoresence protein) into CHO-K1 cells using lipofectamine 2000 following the manufacturer’s instructions. 4–6 h after transfection, cells were seeded onto poly-lysine (PLL) coated coverslips, and 24–36 h later, transfected cells were ready for patch-clamp analysis. It should be note that KV4.2 and its mutants were also co-expressed with hKChIP1 to promote their functional expressions.
(§4) Whole-cell patch clamp recording was performed in an electrophysiology platform equipped with MultiClamp 700B amplifier and Axon Digidata 1550 AD/DA convertor (Axon Instruments, Irvine, CA, United States). Data were acquired using the pClamp software (Axon Instruments, Irvine, CA, United States). All experiments were performed at room temperature. The bath solution contains (in mM): 140 NaCl, 5 KCl, 1 MgCl2, 2 CaCl2, 10 glucose, and 10 HEPES (pH = 7.3). The pipette solution contains (in mM): 140 KCl, 2.5 MgCl2, 11 EGTA, and 10 HEPES (pH = 7.3). Series resistance was kept below 10 MΩ and compensated to 80%. The concentration–response curves were fitted by a Hill logistic equation to estimate the potency (IC50) of the toxin. The whole cell conductance (G) at each depolarizing voltage (V) was determined using the equation: G = I/(V−Vrev), where I and Vrev represents the current amplitude and the reversal potential, respectively. In the present study, Vrev for K^+ current is determined to be −85.61 mV using the Nernst equation. G-V curve was obtained by plotting the normalized G as a function of V and fitted by the Boltzmann equation: y = 1/{1 + exp [(Va−V)/K]}, in which Va, V, and K represents half-maximum activation voltage, test voltage and slope factor, respectively. The steady-state fast inactivation of KV4 channels was measured using a classical two-pulses protocol: cell was held at −120 mV, and a train of conditional voltages (−120–40 mV, in 10 mV increment, 1,000 ms) were applied to induce channel inactivation, followed by a +60 mV test pulse (300 ms) to assess the proportion of non-inactivated channels; the sweep interval was set to 10 s. Currents at the test pulse (I) were normalized to the maximum value (Imax) and plotted as a function of the conditional voltage (V), the curve was fitted by the Boltzmann equation: I/Imax = A + (1−A)/{1 + exp [(V−Vh)/K]}, where Vh is the half-maximum inactivation voltage, A represents the minimum channel availability, and K is the slope factor. Gating currents of KV4.1–4.3 channels were measured as previously reported ([Tilley et al., 2019]). Briefly, the ionic pore currents were abolished by replacing K^+ with NMDG^+ in the pipette solution, and 10 µM Cs^+ was present in the bath solution to occupy the selectivity filter of KV channels to prevent decay of the gating currents during recording.
(§5) Data were presented as MEAN ± SEM, n represents the number of separate experimental cells. Data were analyzed using the software Clampfit 10.5 (Axon Instruments, Irvine, CA, United States), Graphpad Prism 5.01 (GraphPad Software, La Jolla, CA, United States) and Excel 2010 (Microsoft Corporation, Redmond, WA, United States). […]

KV3.2 channel (hKV3.2) = experiment: Whole-cell patch clamp selectivity, KV3.2; format: cell-based, human; details: KV3.2, 10 µM, n = 5
Protocol: as §1, §2

[1] = tested on: KV4.2/T282P mutant (T280P in text); experiment: Whole-cell patch clamp, KV4.2/T282P (text: KV4.2/T280P) (with hKChIP1) in CHO-K1 cells; format: cell-based, rat
Protocol: as §3
as §4, with “Currents at the test pulse (I) were normalized to the maximum value (Imax) and plotted as a function of the conditional voltage (V), the curve was fitted by the Boltzmann equation: I/Imax = A + (1−A)/{1 + exp [(V−Vh)/K]}, where Vh is the half-maximum inactivation voltage, A represents the minimum channel availability, and K is the slope factor.” left out, “Briefly, the ionic pore currents were abolished by replacing K^+ with NMDG^+ in the pipette solution, and 10 µM Cs^+ was present in the bath solution to occupy the selectivity filter of KV channels to prevent decay of the gating currents during recording.” left out
as §5

KV4.1/V281M mutant = experiment: Whole-cell patch clamp, KV4.1/V281M in CHO-K1 cells; format: cell-based, mouse; details: +30 mV, n = 5
Protocol: as §1, §2

[2] = 10 μM κ-LhTx-1, KV4.1, two-pulse protocol, mean ± SEM, n = 5
[3] = 10 μM κ-LhTx-1, KV4.2/T282P, G-V, mean ± SEM, n = 5
[4] = 10 μM κ-LhTx-1, KV4.2/T282P, two-pulse protocol, mean ± SEM, n = 5

Compound: CC[C@H](C)[C@@H]1NC(=O)[C@H](CCC(N)=O)NC(=O)[C@@H]2CSSC[C@@H]3NC(=O)[C@H](CC(C)C)NC(=O)[C@H](CC(N)=O)NC(=O)[C@H](CCSC)NC(=O)[C@H](Cc4c[nH]c5ccccc45)NC(=O)[C@H](CO)NC(=O)[C@H](C)NC(=O)[C@@H](NC(=O)[C@H](CCC(=O)O)NC(=O)[C@H](CCC(N)=O)NC(=O)[C@H](C)NC(=O)[C@H](CC(=O)O)NC(=O)[C@@H](N)CCC(=O)O)CSSC[C@H](NC(=O)[C@H](CSSC[C@@H](C(=O)N[C@@H](CCCCN)C(=O)N[C@@H](Cc4ccc(O)cc4)C(=O)N[C@@H](CCCCN)C(=O)N[C@@H](CC(C)C)C(N)=O)NC(=O)[C@H](Cc4c[nH]c5ccccc45)NC1=O)NC(=O)[C@H](CCCCN)NC(=O)[C@H](CCCCN)NC(=O)[C@H](CCC(=O)O)NC(=O)CNC3=O)C(=O)N[C@@H](CCC(=O)O)C(=O)NCC(=O)N[C@@H](Cc1ccc(O)cc1)C(=O)N[C@@H](C(C)C)C(=O)N2 [κ-LhTx-1] (H-EDAQECASWMNLCGEKKCCEGYVCQIWCKYKL-NH2; disulfide 6-19, 13-24, 18-28 (inferred); N-terminus and C-terminus assumed)
- effect of mutation on toxin inhibition (KV4.1/279LF/AA mutant): profoundly weakened the effect
- Va (steady-state activation) (KV4.1 channel (mKV4.1); 10 μM κ-LhTx-1, KV4.1, Boltzmann fit of G-V curve, mean ± SEM, n = 5): 95.20 ± 1.68 mV
- k, slope factor (steady-state activation) (KV4.1 channel (mKV4.1); 10 μM κ-LhTx-1, KV4.1, G-V, mean ± SEM, n = 5): 16.14 ± 1.78 mV
- Vh (steady-state inactivation) (KV4.1 channel (mKV4.1); [2]): -32.48 ± 3.44 mV
- k, slope factor (steady-state inactivation) (KV4.1 channel (mKV4.1); [2]): 22.88 ± 0.19 mV
- reversibility of inhibition (KV4.1 channel (mKV4.1); KV4.1): in a reversible manner
- voltage-dependence of inhibition (KV4.1 channel (mKV4.1); KV4.1, 10 µM, inhibition ratio at each depolarizing voltage, n = 5–8): affected by voltage to a much less extent
- I-V: current inhibition below +60 mV (KV4.1 channel (mKV4.1); KV4.1, 10 µM, n = 5–8): fully inhibited the currents at voltages below +60 mV
- I-V: reopening of toxin-bound channels (KV4.1 channel (mKV4.1); KV4.1, 10 µM, strong depolarization, n = 5–8): only depolarizations stronger than +70 mV could partially reopen the toxin-bound channels
- maximum inhibition (KV4.1 channel (mKV4.1); KV4.1, saturating dose 10 μM, +30 mV): fully inhibit
- current inhibition at Va (KV4.1 channel (mKV4.1); KV4.1 at Va depolarizing voltage): almost fully inhibited
- ∆Va (steady-state activation) (KV4.1 channel (mKV4.1); Va shift by 10 μM κ-LhTx-1 vs control, KV4.1, mean ± SEM): 98.28 ± 2.66 mV
- ∆Vh (steady-state inactivation) (KV4.1 channel (mKV4.1); Vh shift by 10 μM κ-LhTx-1 vs control, KV4.1, mean ± SEM): 29.27 ± 2.05 mV
- effect on currents (KV3.2 channel (hKV3.2)): did not remarkably affect the currents
- Va (steady-state activation) [1, 3]: 16.93 ± 2.90 mV
- k, slope factor (steady-state activation) [1, 3]: 25.61 ± 0.68 mV
- Vh (steady-state inactivation) [1, 4]: -71.72 ± 3.71 mV
- k, slope factor (steady-state inactivation) [1, 4]: 5.86 ± 0.21 mV
- toxin inhibition ([1]; KV4.2/T280P, 10 μM, all voltages, n = 5–6): resistant to toxin inhibition at all voltages
- potency vs wild-type KV4.1 (KV4.1/V281M mutant): only slightly reduced κ-LhTx-1 potency
